According to patent publication US20120164674A1, “DEVICES AND WASHES FOR BIOMARKER STABILIZATION” (priority 2010, published 2012):

Key:
[1] = test system: peroxidase; experiment: Peroxidase assay in saliva (Amplex Red); type: biochemical; conditions: 500 ppm, 30 minutes, FIGS. 26-29
[2] = test system: Galactose Oxidase; conditions: dilute (3.5%) saliva; FIG. 13
[3] = biological target: T1, Lysozyme (Homo sapiens, UniProt P61626); experiment: Lysozyme inhibition saliva screening (fluorescein-labeled Micrococcus lysodeikticus); type: biochemical; conditions: for inhibition of Lysozyme: 100% saliva samples (data not shown); for RFU Reading (60 mins): saliva, test compound prepared at 5,000 ppm; for Lysozyme Inhibitor Activity: dilute (3.5%) saliva, FIG. 12
T1 construct: from tissue; host or cells: saliva (3.5% dilute or 100%)
T1 sequence (P61626 19-148): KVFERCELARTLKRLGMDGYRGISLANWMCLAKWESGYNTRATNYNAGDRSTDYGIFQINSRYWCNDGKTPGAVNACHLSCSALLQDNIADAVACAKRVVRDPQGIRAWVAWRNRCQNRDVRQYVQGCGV
Text: At least one assay used for the detection of […], as used herein includes the use of a Micrococcus lysodeikticus labeled with fluorescein. The assay measures lysozyme activity on Micrococcus lysodeikticus cell walls, which are labeled to such a degree that the fluorescence is quenched. Lysozyme activity can relieve this quenching; yielding increased fluorescence that is proportional to lysozyme activity.
For the assay, test compounds are mixed with saliva, prior to the addition of lysozyme substrate. The test compounds, such as GRAS materials, are prepared at a concentration of 5,000 ppm in distilled water. Following this preparation, 50 μl of lysozyme substrate at 1 mg/ml (Molecular Probes EnzChek Lysozyme Assay Kit) that has been pre-heated to 37° C. is added to 50 μl of the test compound. To initiate the assay, 50 μl of a dilute (3.5%) or full strength (100%) saliva solution is added to the mixture. Following the initiation, each mixture is measured at 1 minute intervals using a spectrophotometer (such as Molecular Devices M5 reader) for absorption at 494 nm and fluorescence emission at 518 nm. Temperatures of the mixtures are kept constant at 37° C. during the assay.
A series of GRAS compounds were tested using the Lysozyme assay protocol described above. […] Further details of these five compounds may also be seen in Table 5.

[4] = test system: protease; conditions: cited from earlier work

For O=C(O)c1ccccc1 [CDI #16, Benzoic acid], the peroxidase inhibition [1] was “significant peroxidase inhibition capabilities”.

For Cn1c(=O)c2c(ncn2C)n(C)c1=O [CDI #33, Caffeine], the peroxidase inhibition [1] was “significant peroxidase inhibition capabilities”.

With COc1ccc(O)c(C(C)(C)C)c1 [CDI-039, 3-tert--butyl-hydroxyanisole] the peroxidase inhibition [1] was “significant peroxidase inhibition capabilities” and the “Galactose Oxidase Inhibitor Activity” value [2] was “shown to have Galactose Oxidase Inhibitor Activity”.

With O=C(O)c1ccccc1 [CDI-40, Benzoic acid] the “inhibition of Lysozyme” value [3] was “shown to inhibit Lysozyme”, the “RFU Reading (60 mins)” value [3] was 35.82 RFU and the “Lysozyme Inhibitor Activity” value [3] was “shown to have Lysozyme Inhibitor Activity”. For the same molecule, the “Galactose Oxidase Inhibitor Activity” value [2] was “shown to have Galactose Oxidase Inhibitor Activity”.

For CC(=O)O [CDI-047, Acetic acid], the “inhibition of Lysozyme” value [3] was “shown to inhibit Lysozyme”, the “RFU Reading (60 mins)” value [3] was 33.53 RFU and the “Lysozyme Inhibitor Activity” value [3] was “shown to have Lysozyme Inhibitor Activity”. The “Galactose Oxidase Inhibitor Activity” value [2] was “shown to have Galactose Oxidase Inhibitor Activity”.

B1: Soybeans: primary soybean protease inhibitor, 20.7-22.3 kDa (protein, UniProt P01070 25-205, looked up)
Trypsin inhibitor A: DFVLDNEGNPLENGGTYYILSDITAFGGIRAAPTGNERCPLTVVQSRNELDKGIGTIISSPYRIRFIAEGHPLSLKFDSFAVIMLCVGIPTEWSVVEDLPEGPAVKIGENKDAMDGWFRLERVSDDEFNNYKLVFCPQQAEDDKCGDIGISIDHDDGTRRLVVSKNKPLVVQFQKLDKESL
In the case of B1, the Inhibitory power [4] is given as 1.2 times times weight.
